The nature of data set [1]: pKa of basic centres (Table 1). Format: physicochemical.
The target of another data set is CYP2D6 (Homo sapiens (Human), UniProt P10635). The data set is described as follows: Cytochrome P450 inhibition assay, recombinant CYP2D6 (MAMC substrate). Particulars: recombinant enzyme. Format: in vitro ADME.
Data set [2] concerns the target human serotonin transporter (Homo sapiens (Human), UniProt P31645). The data set is described as follows: Human SERT (serotonin transporter) uptake assay. Format: cell-based. The following applies: read-out: hSERT Ki. On the procedure: This protocol was designed to measure inhibition of uptake by the human serotonin transporter. […] The Assay Buffer (AB) was […] and 0.02 M HEPES.
(§1) The HEK293F cells were transfected with the human serotonin transporter and frozen in 1 mL aliquots at about 1E+07 cells/mL. On the day of the experiment, the cells were removed from −80° C. or liquid nitrogen and thawed in a room temperature water bath. The cells were dilute to about 1-2E+06 with Freestyle medium. A 1 mL sample (1:2 dilution) was prepared, and the cells were counted. The cells were spun at 1100 rpm for 5 minutes, and the medium was aspirated off. The cells were resuspend in medium at 1.5E+06 cells/mL for about 60,000 cells per well. 40 μL of cells were dispensed per well in the Biocoat plates. The plates were spun at 1100 rpm for 1 minute to improve homogeneity of the cell layer and were incubated at 37° C. for a minimum of 3 hours.
12 μL of test compound (10 mM) in DMSO was added to the wells, and nomifensine was used as a control. Fluoxetine (final assay concentration of 10 μM) was used for background signal. The neurotransmitter transporter dye was prepared in AB prior to use.
Due to the proprietary nature of the dye formulation, all dye concentrations were expressed as a percentage of the vendor-recommended dye reconstitution. Thus, the above calculations were valid when both [dye] and Km were expressed in the same units (%). Compounds were tested in triplicate (n=3).

The target of another data set is CYP3A4 (Homo sapiens (Human), UniProt P08684). Kind of data set: Cytochrome P450 inhibition assay, recombinant CYP3A4 (BFC substrate). Format: in vitro ADME. The following applies: recombinant enzyme.
Chain of CYP3A4 (P08684 whole entry): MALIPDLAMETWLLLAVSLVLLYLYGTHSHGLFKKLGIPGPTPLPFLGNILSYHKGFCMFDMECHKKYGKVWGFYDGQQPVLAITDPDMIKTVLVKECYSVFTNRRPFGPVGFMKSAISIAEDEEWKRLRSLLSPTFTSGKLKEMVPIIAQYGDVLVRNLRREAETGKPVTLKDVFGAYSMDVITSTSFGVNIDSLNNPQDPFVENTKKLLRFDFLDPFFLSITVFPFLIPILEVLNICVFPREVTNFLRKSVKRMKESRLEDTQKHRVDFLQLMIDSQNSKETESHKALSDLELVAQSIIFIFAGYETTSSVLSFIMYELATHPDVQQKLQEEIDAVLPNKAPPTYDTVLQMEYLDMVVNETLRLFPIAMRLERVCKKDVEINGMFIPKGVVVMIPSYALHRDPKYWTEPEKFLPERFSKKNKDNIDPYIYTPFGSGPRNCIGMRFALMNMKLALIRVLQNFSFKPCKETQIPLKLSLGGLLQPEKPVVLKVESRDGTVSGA
In data set [3] the target is human dopamine transporter (Homo sapiens (Human), UniProt Q01959). The data set is described as follows: Human DAT (dopamine transporter) uptake assay. Format: cell-based. The following applies: read-out: hDAT Ki. On the procedure:
This protocol was designed to measure inhibition of uptake by the human dopamine transporter. […] The Assay Buffer (AB) was 1×HBSS and 0.02 M HEPES.
as §1, with “dopamine” for “serotonin”
12 μL of test compound (10 mM) in DMSO was added to the wells, and nomifensine was used as a control. […] The neurotransmitter transporter dye was prepared in AB prior to use.
Due to the proprietary nature of the dye formulation, all dye concentrations were expressed as a percentage of the vendor-recommended dye reconstitution. Thus, the above calculations were valid when both [dye] and K1 were expressed in the same units (%). Compounds were tested in triplicate (n=3).

Data set [4] addresses human norepinephrine transporter (Homo sapiens (Human), UniProt P23975). The data set is described as follows: Human NET (norepinephrine transporter) uptake assay. Format: cell-based. Particulars: read-out: hNET Ki. An outline of the steps:
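HEK293F cells transfected with human NET were thawed, plated at about 60,000 cells/well and held at 37 °C for at least 3 h. Compounds came from 10 mM DMSO stocks, with nomifensine as control, in 1×HBSS/0.02 M HEPES. Uptake was followed with a neurotransmitter transporter dye, dosed as % of vendor reconstitution, in triplicate.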

[5] abbreviates: first base, e.g., an aliphatic primary, secondary, or tertiary amine, read-out: pKa (Base 1).
[6] abbreviates: second base in the same molecule (if present), read-out: pKa (Base 2).

Read-outs that look alike come from different tables or passages of the source.

Chain of CYP2D6 (P10635 whole entry): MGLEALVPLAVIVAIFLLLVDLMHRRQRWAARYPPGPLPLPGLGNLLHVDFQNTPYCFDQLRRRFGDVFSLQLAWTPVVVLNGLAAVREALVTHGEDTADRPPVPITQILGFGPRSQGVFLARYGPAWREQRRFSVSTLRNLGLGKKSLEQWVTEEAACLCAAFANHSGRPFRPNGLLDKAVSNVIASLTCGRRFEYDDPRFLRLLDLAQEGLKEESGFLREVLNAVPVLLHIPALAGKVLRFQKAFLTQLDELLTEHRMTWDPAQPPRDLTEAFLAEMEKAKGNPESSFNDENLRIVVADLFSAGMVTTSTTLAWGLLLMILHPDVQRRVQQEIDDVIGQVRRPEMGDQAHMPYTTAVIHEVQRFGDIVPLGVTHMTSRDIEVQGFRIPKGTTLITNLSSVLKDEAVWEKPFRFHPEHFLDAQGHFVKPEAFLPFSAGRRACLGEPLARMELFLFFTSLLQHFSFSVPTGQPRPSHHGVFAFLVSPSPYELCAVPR
Chain of human serotonin transporter (P31645 whole entry): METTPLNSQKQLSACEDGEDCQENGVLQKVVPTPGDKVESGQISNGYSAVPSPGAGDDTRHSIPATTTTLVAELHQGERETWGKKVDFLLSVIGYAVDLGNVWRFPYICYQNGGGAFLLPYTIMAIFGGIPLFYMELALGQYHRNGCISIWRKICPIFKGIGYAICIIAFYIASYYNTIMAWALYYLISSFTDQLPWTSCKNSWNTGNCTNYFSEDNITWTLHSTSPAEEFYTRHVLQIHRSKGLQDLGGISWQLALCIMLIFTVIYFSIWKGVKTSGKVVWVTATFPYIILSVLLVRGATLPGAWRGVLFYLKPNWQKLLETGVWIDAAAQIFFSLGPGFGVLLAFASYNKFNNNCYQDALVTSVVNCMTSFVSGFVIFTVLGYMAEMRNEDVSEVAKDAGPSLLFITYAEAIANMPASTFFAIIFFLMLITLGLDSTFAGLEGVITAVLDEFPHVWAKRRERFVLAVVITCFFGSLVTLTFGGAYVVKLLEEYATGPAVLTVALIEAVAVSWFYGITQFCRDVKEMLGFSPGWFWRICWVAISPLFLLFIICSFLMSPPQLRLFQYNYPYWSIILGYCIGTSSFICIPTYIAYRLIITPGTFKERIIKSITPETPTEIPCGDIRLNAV
Chain of human dopamine transporter (Q01959 whole entry): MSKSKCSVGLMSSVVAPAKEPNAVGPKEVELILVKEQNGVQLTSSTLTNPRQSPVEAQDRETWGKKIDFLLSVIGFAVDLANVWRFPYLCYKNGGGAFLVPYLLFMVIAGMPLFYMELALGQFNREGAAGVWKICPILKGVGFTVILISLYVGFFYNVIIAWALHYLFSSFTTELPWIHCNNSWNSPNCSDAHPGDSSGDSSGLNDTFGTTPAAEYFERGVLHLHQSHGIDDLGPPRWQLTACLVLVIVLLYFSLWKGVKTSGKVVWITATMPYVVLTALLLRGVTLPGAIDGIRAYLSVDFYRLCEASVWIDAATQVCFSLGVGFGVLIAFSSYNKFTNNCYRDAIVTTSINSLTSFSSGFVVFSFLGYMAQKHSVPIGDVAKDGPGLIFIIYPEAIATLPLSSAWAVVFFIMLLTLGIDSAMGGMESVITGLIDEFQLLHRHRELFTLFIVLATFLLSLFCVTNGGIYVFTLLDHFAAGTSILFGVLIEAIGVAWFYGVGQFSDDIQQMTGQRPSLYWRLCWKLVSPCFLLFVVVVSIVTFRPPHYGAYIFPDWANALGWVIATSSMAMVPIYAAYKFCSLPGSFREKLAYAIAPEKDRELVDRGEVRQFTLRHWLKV
Chain of human norepinephrine transporter (P23975 whole entry): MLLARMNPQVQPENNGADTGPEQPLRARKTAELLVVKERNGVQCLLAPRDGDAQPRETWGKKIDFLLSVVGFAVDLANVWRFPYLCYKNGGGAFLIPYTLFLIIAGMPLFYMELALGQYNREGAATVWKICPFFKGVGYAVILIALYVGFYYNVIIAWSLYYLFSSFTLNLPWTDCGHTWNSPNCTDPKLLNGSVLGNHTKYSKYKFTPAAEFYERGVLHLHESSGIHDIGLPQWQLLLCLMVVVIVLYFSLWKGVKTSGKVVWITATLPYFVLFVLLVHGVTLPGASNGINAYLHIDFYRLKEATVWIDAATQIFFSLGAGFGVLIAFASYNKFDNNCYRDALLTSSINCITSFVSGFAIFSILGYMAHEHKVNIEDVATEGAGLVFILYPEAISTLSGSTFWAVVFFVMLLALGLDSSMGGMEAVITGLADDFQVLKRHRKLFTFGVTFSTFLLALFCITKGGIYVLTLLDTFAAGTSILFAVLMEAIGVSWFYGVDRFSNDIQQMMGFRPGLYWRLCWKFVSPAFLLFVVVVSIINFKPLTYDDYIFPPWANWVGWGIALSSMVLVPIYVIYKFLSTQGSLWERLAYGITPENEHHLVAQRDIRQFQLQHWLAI

Regarding `CNC[C@H](c1ccc(Cl)c(Cl)c1)[C@H](O)c1cccc([N+](=O)[O-])c1` [Compound 102], in data set [1] (setting [5]), the pKa came out at 9.3. Also, the values for the IC50 at CYP2D6 and at CYP3A4 were 120 nM and 5700 nM, respectively. For the same molecule, the Ki in data set [2] was found to be 86.2 nM; in data set [3] it was 29.3 nM; in data set [4] it was 55.2 nM.

For the molecule `CNC[C@H](c1ccc(Cl)c(Cl)c1)[C@@H](O)c1cccc(N)c1` [Compound 63], the pKa in data set [1] (setting [5]) came to 9.4; in data set [1] (setting [6]), 4.3. The IC50 at CYP2D6 was determined as 2800 nM; on CYP3A4, 8300 nM. Also, the Ki in data set [2] stood at 853 nM; in data set [3] it was 78.2 nM; in data set [4], 6.7 nM.

For `CNC[C@H](c1ccc(Cl)c(Cl)c1)[C@@H](O)c1ccccc1I` [Compound 152], the pKa in data set [1] (setting [5]) was determined as 9.4. The IC50 at CYP2D6 was 44 nM; at CYP3A4, 2000 nM. For the same molecule, the inhibition constant (Ki) in data set [2] was 935 nM; in data set [3] it was 31.8 nM; in data set [4], 126 nM.

Turning to `CN1CCO[C@@H](c2ccccc2)[C@@H](c2ccc3ccccc3c2)C1` [Compound 123], the pKa in data set [1] (setting [5]) stood at 8.2. Moreover, the IC50 on CYP2D6 was found to be 6600 nM. The Ki in data set [2] stood at 12 nM; in data set [3] it was 379 nM; in data set [4], 290 nM.

On to `CNC[C@@H](c1ccc(Cl)c(Cl)c1)[C@@H](O)c1ccccc1[S+](C)[O-]` (stereo partly shown) [Compound 128], for which the pKa in data set [1] (setting [5]) worked out at 9.4. Further, the half-inhibitory concentration (IC50) at CYP2D6 worked out at 19000 nM; on CYP3A4, 20000 nM. In addition, the Ki is 3040 nM in data set [2], 193 nM in data set [3] and 2630 nM in data set [4].

`CNC[C@H](c1ccc2ccccc2c1)[C@@H](O)c1cc(F)cc(F)c1` [Compound 141]: the pKa in data set [1] (setting [5]) was 9.6. For the same molecule, the IC50 on CYP2D6 was 370 nM; at CYP3A4 it was 20000 nM. In addition, the results for the Ki in data set [2], in data set [3] and in data set [4] were 296 nM, 91.9 nM and 32.6 nM, respectively.

For the molecule `CNC[C@@H](c1ccc2ccccc2c1)[C@@H](OCC(N)=O)c1ccccc1` [Compound 117], the pKa in data set [1] (setting [5]) was 9.6. Further, the half-inhibitory concentration (IC50) was determined as 5500 nM on CYP2D6 and 20000 nM at CYP3A4. The values for the Ki in data set [2], in data set [3] and in data set [4] were 796 nM, 12.9 nM and 236 nM, respectively.

With `CNC[C@H](c1ccc(Cl)c(Cl)c1)[C@H](O)c1cncc(OC)c1` [Compound 166], the pKa in data set [1] (setting [5]) is 9.3; in data set [1] (setting [6]), 4.5. Also, the results for the IC50 at CYP2D6 and on CYP3A4 were 630 nM and 240 nM, respectively. The Ki in data set [2] worked out at 36.9 nM; in data set [3], 132 nM; in data set [4] it was 92.4 nM.

In the case of `O[C@@H](c1ccccc1)[C@@H](CNCC(F)(F)F)c1ccc2ccccc2c1` (single isomer, unassigned) [Compound 130], the pKa in data set [1] (setting [5]) came to 4.6. In addition, at CYP2D6, the IC50 turned out to be 3700 nM. The results for the inhibition constant Ki in data set [2], in data set [3] and in data set [4] were 3370 nM, 87.3 nM and 4570 nM, respectively.

On to `CN1C[C@H](c2ccc3ccccc3c2)[C@@H](c2ccccc2)OCC1=O` [Compound 129], for which the half-maximal inhibitory concentration (IC50) at CYP2D6 and at CYP3A4 was 20000 nM throughout. The Ki in data set [2] stood at 3370 nM; in data set [3], 43.5 nM; in data set [4], 3670 nM.

With `CN1CCO[C@@H](c2ccccc2)[C@H](c2ccc3ccccc3c2)C1` [Compound 124], the pKa in data set [1] (setting [5]) worked out at 8.2. At CYP2D6, the half-inhibitory concentration (IC50) came out at 3000 nM. For the same molecule, the figures for the Ki in data set [2], in data set [3] and in data set [4] were 167 nM, 15.3 nM and 338 nM, respectively.

On to `CNC[C@H](c1ccc2ccccc2c1)[C@@H](O)c1ccncc1Cl` [Compound 7], for which the pKa worked out at 9.5 in data set [1] (setting [5]) and 3 in data set [1] (setting [6]). Moreover, the Ki in data set [2] worked out at 3.6 nM; in data set [3], 6.6 nM; in data set [4] it was 1.4 nM.

Consider `CNC[C@H](c1ccc2ccccc2c1)[C@H](OCc1nc(C(=O)OC)co1)c1ccccc1` [Compound 84], for which the pKa in data set [1] (setting [5]) was determined as 9.6. In addition, the Ki in data set [2] was 3.3 nM; in data set [3], 39.2 nM; in data set [4], 16.2 nM.

For the origin of these results see patent publication US9944618B2, “Inhibiting neurotransmitter reuptake” (Mayo Foundation for Medical Education and Research, priority 2013, dated 2018).
